This note sets out measurements from ChEMBL document CHEMBL2177047, “Design, synthesis, and pharmacological evaluation of bis-2-(5-phenylacetamido-1,2,4-thiadiazol-2-yl)ethyl sulfide 3 (BPTES) analogs as glutaminase inhibitors” (J Med Chem, 2012).

Converted amounts (≈) assume the structure as drawn. The source made the active and inactive calls. No cut-off for these calls is given here.

For one data set, the system named is P493. Description: Antitumor activity against human P493 cells xenografted in SCID mouse assessed as reduction in tumor growth at 12.5 mg/kg, ip administered every other day from day 10 measured on days 10 to 19 relative to vehicle-treated control.
Conditions: not given
The arrangement: dose 12.5 mg/kg. In kind it is functional, organism-based.
Regarding `Nc1nnc(CCSCCc2nnc(NC(=O)Cc3ccccc3)s2)s1`, the TGI entry was “Active”.

Test system in the next data set: not listed separately
Description: physchem. To be noted: PBS buffer, pH 7.4.
Description: Aqueous solubility of the compound in PBS buffer at pH 7.4 after 72 hrs by conventional shake flask method
Take `O=C(CCCCc1nnc(NC(=O)Cc2ccccc2)s1)NCCN1CCCC1`: the thermodynamic solubility at 72 h was 683 µg/mL (≈ 1640 µM).
The same measure, in the same setting: for `Nc1nnc(CCCCc2nnc(NC(=O)Cc3ccccc3)s2)s1` the value was 3.4 µg/mL (≈ 9.08 µM).

Another data set deals with P493. Description: (§1) Cytotoxicity against human P493 cells assessed as growth inhibition by trypan blue dye exclusion assay. The data set is classed as functional, cell-based.
Conditions: not given
For the compound `Nc1nnc(CCSCCc2nnc(NC(=O)Cc3ccccc3)s2)s1`, the “growth inhibition (GI)” value is “Dose-dependent effect”.

Test system in another data set: not listed separately
The description is as §1. In kind it is functional, cell-based. To be noted: P493-6.
For the compound `O=C(CCCCc1nnc(NC(=O)Cc2ccccc2)s1)NCCN1CCCC1`, the IC50 was found to be 40 µM.

For another data set, the target named is T1, Glutaminase kidney isoform, mitochondrial (Homo sapiens, UniProt O94925).
T1 sequence (O94925 whole entry): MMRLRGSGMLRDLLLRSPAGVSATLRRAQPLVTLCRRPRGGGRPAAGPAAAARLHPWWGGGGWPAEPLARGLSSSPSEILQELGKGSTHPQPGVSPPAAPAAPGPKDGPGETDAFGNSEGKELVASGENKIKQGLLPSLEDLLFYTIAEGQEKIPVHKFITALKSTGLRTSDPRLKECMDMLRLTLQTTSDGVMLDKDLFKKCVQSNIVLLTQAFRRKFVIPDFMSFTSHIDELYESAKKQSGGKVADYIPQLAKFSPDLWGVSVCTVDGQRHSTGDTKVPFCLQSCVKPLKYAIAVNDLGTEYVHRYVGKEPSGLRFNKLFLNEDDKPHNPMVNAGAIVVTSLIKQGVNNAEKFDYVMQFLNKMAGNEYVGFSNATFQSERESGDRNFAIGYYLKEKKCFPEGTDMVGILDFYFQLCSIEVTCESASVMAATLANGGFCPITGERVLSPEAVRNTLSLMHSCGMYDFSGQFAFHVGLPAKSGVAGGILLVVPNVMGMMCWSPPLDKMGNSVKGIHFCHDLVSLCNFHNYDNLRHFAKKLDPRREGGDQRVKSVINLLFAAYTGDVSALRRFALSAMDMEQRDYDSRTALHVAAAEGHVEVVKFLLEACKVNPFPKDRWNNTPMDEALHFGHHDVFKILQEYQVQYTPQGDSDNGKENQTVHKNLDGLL
In words: Inhibition of human kidney glutaminase (124 to 669) using L-[3H]-glutamine as substrate after 45 mins by GLS assay.
Conditions: not given
Regarding `Cc1ccc(CC(=O)Nc2nnc(CCCCc3nnc(N)s3)s2)cc1`, it took 4.5 µM to reach half-maximal inhibition (IC50).
Still for that read-out and setting: as for `CN1CCCC1CCNC(=O)CCCCc1nnc(NC(=O)Cc2ccccc2)s1` (stereo not given), the figure is 8.1 µM; as for `NCCNC(=O)CCCCc1nnc(NC(=O)Cc2ccccc2)s1`, above 100 µM; as for `Nc1nnc(CCCCc2nnc(NC(=O)CCc3ccccc3)s2)s1`, above 100 µM.
`O=C(CCCCc1nnc(NC(=O)Cc2ccccc2)s1)NCc1ccccc1` yielded an IC50 above 100 µM.
Still for that read-out and setting: for `CN(C)c1ccc(CNC(=O)CCCCc2nnc(NC(=O)Cc3ccccc3)s2)cc1` the value was 48 µM.
Still for that read-out and setting: for `Nc1nnc(CCCCc2nnc(NC(=O)c3ccccc3)s2)s1` the value was 7.2 µM; for `O=C(CCCCc1nnc(NC(=O)Cc2ccccc2)s1)NCCN1CCC(c2ccccc2)CC1`, 1.4 µM.
Same read-out and setting: as for `Nc1nnc(CCCCc2cnc(NC(=O)Cc3ccccc3)s2)s1`, the figure is above 100 µM; as for `CN(CCN1CCCC1)C(=O)CCCCc1nnc(NC(=O)Cc2ccccc2)s1`, above 100 µM; as for `O=C(CCCCc1nnc(NC(=O)Cc2ccccc2)s1)NCCN1CCCCC1`, 10 µM.
In turn, `Nc1nnc(CCCCc2nnc(NC(=O)CC3CCCCC3)s2)s1` yielded an IC50 of 22 µM.
Still for that read-out and setting: as for `Nc1nnc(CCCCc2nnc(NC(=O)Cc3ccc(F)cc3)s2)s1`, the figure is 2.6 µM.
Same read-out and setting: as for `CC(C(=O)Nc1nnc(CCCCc2nnc(N)s2)s1)c1ccccc1` (stereo not given), the figure is 12 µM; as for `Nc1nnc(CCCc2nnc(NC(=O)Cc3ccccc3)s2)s1`, 15 µM.
In turn, `Nc1nnc(CC[S+]([O-])CCc2nnc(NC(=O)Cc3ccccc3)s2)s1` (stereo not given) gave an IC50 of 61 µM.
Same read-out and setting: as for `Nc1nnc(CCCCc2csc(NC(=O)Cc3ccccc3)n2)s1`, the figure is above 100 µM; as for `CC(C)(C)NC(=O)CCCCc1nnc(NC(=O)Cc2ccccc2)s1`, 11 µM.
On the same count and under the same terms, as for `CN(C(=O)CCCCc1nnc(NC(=O)Cc2ccccc2)s1)C(C)(C)C`, the figure is 5.2 µM; as for `CCN(CC)CCNC(=O)CCCCc1nnc(NC(=O)Cc2ccccc2)s1`, 26 µM; as for `O=C(CCCCc1nnc(NC(=O)Cc2ccccc2)s1)NCCN1CCC(O)CC1`, 3.8 µM.
On the same count and under the same terms, as for `O=C(CCCCc1nnc(NC(=O)Cc2ccccc2)s1)NCc1ccc(C(F)(F)F)cc1`, the figure is above 100 µM.

A further data set deals with Liver. Description: Metabolic stability in mouse liver microsomes at 5 uM up to 1 hr by LC/MS/MS analysis.
Conditions: not given
In kind it is ADME, Microsome.
As to `O=C(CCCCc1nnc(NC(=O)Cc2ccccc2)s1)NCCN1CCCC1`, the Stability entry is given as “Stable”.
Still for that read-out and setting: as for `Nc1nnc(CCCCc2nnc(NC(=O)Cc3ccccc3)s2)s1`, the entry is “Stable”.

Another data set addresses T2, Glutaminase liver isoform, mitochondrial (Mus musculus) (UniProt Q571F8).
T2 sequence (whole entry): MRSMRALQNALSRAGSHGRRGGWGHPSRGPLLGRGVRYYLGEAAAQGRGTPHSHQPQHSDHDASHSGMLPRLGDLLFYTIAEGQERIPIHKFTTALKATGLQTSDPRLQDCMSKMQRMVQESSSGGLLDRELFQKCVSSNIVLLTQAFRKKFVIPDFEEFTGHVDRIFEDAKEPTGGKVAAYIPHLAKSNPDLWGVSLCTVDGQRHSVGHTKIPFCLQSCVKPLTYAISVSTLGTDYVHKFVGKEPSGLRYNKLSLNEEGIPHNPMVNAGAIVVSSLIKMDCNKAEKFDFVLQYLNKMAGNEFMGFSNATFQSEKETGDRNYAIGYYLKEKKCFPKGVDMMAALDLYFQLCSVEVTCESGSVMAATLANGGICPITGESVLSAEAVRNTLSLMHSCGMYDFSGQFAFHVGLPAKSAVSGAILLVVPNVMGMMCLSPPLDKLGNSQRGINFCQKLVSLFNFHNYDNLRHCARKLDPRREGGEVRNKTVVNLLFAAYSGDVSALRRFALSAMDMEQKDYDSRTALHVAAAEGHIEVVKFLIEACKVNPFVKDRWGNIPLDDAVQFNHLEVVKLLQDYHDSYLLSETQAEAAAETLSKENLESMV
In words: Inhibition of mouse liver GLS2 up to 100 uM.
Conditions: not given
On to `Nc1nnc(CCSCCc2nnc(NC(=O)Cc3ccccc3)s2)s1`, for which the inhibition entry was “inactive”.
